# Measurements reported in US11452731B2, “Method of treating and preventing loss of cognition” (ENDORECHERCHE, INC., priority 2009, dated 2022).
# Entries after “also recorded” stand apart in the source; their conditions may differ. Like-named read-outs stand apart in the source and are kept apart here.
# Assays:
# [1] = tested on: MCF-7 human breast cancer cells; assay: Proliferation (DNA content) of human breast cancer MCF-7 cells (Example 7); format: cell-based; conditions: for IC50: Homo sapiens, read-out: Inhibition of 1 nM E2 stimulation of DNA by tested compounds IC50
# Text: MCF-7 human breast cancer cells were obtained from the American Type Culture Collection #HTB 22 at passage 147 and routinely grown in phenol red-free Dulbecco's Modified Eagle's-Ham's F12 medium, the supplements mentioned above and 5% FBS. The MCF-7 human breast adenocarcinoma cell line was derived from the pleural effusion of a patient. MCF-7 cells were used between passages 148 and 165 and subcultured weekly
# Thereafter, medium was replaced with fresh medium containing the indicated concentrations of compounds diluted from 1000×stock solutions in 99% redistilled ethanol in the presence or absence of E2. Control cells received only the ethanolic vehicle (0.1% EtOH, v/v). Cells were incubated for the specified time intervals with medium changes at 2- or 3-day intervals. Cell number was determined by measurement of DNA content.
# All results are expressed as means±SEM.
# [2] = tested on: ZR-75-1 human breast cancer xenografts; assay: Growth and response of human ZR-75-1 breast tumors in OVX nude mice, 7 antiestrogens for 161 days with or without estrone (Example 8); format: in vivo
# Outline: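 ZR-75-1 xenografts were grown in ovariectomized nude mice, with estrone implants removed in the OVX control and antiestrogen-alone groups. Antiestrogens were given as suspensions for 161 days. Tumor area came from two perpendicular diameters, and response was assessed at study end using mice surviving at least 84 days.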
# [3] = tested on: ZR-75-1 human breast cancer xenografts; assay: Tamoxifen and EM-652.HCl alone or combined on growth of ZR-75-1 xenografts in nude mice (FIG. 7); format: in vivo; conditions: hydrochloride
# [4] = tested on: human Ishikawa cells; assay: Alkaline phosphatase activity in human endometrial adenocarcinoma Ishikawa cells (Example 6)
# [5] = estrone-supplemented, 50 μg daily, 161 days
compound,measurement,setting,value
"CC1=C(c2ccc(O)cc2)[C@H](c2ccc(OCCN3CCCCC3)cc2)Oc2cc(O)ccc21.Cl [EM-652.HCl, (S)-(+)-7-hydroxy-3-(4′-hydroxyphenyl)-4-methyl-2-(4″-(2′″-piperidinoethoxy)phenyl)-2H-1-benzopyran hydrochloride]",IC50,"[1]; MCF7, MCF-7, Experiment 1",796 pM
same,IC50,"[1]; MCF7, MCF-7, Experiment 2",205 pM
same,Maximal stimulation of DNA by tested compounds % of 1 nM E2 stimulation,"[1]; MCF-7, Experiment 1",N.S.
same,Stimulation of DNA by tested compounds % of 1 nM E2 stimulation,"[1]; MCF-7, Experiment 2",N.S.
same,increase of average tumor size over baseline (agonistic effect),"[2]; absence of estrone, 200 μg daily, 161 days",did not significantly change
same,tumor size lower than the initial value at start of treatment,"[2]; estrone-stimulated, 50 μg oral daily, 23 weeks",26%
same,"complete response, % of tumors",[2]; [5],17%
same,"partial response, % of tumors",[2]; [5],17%
same,"progressing tumors, % of tumors",[2]; [5],7%
same,"stable response, % of tumors",[2]; [5],60%
same,effect on growth of ZR-75-1 xenografts,[3],did not exert any stimulatory effect; also recorded: no effect on tumor growth
same,IC50,"[4]; Homo sapiens, Ishikawa, 120 h, read-out: Inhibition of 1 nM E2-induced stimulation of alkaline phosphatase IC50",1520 ± 220 pM
same,Emax,"[4]; Homo sapiens, Ishikawa, 120 h, read-out: Maximal stimulation of alkaline phosphatase % of 1 nM E2 stimulation",1.88 ± 0.26%
same,Maximal inhibition of 1 nM E2-induced stimulation of alkaline phosphatase,"[4]; Ishikawa cells, 5-day incubation, 1 nM E2",98.97 ± 0.174 (18)
